Reference: PubChem BioAssay AID248 (DTP/NCI, 2004)
Several values for one entry are separate records, joined by “and”; a condition that tells them apart may be missing. Equal values may be shown once. Inconclusive results and toxic doses are left out. Cut-off read from the data, not from the text of the source: active = T/C of 150% or more; inactive = T/C below 125%.

Tested on: L1210 leukemia ip in BDF1 mice, survival T/C
Experiment: NCI In Vivo Anticancer Drug Screen. Data for tumor model L1210 Leukemia (intraperitoneal) in B6D2F1 (BDF1) mice
Details: endpoint: mean survival time, higher = longer survival
Method in brief: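 In this screen, tumor-bearing mice given compound are compared to those given vehicle, and their survival values are reported as a treated-to-control quotient.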

[1] = dose: 25.0 mg/kg/injection, schedule: Q04DX003 (ip), vehicle: saline
[2] = dose: 50.0 mg/kg/injection, schedule: Q04DX003 (ip), vehicle: saline
[3] = dose: 100.0 mg/kg/injection, schedule: Q04DX003 (ip), vehicle: Klucel (hydroxypropylcellulose) (HPC)
[4] = dose: 100.0 mg/kg/injection, schedule: Q04DX003 (ip), vehicle: saline
[5] = dose: 200.0 mg/kg/injection, schedule: Q04DX003 (ip), vehicle: Klucel (hydroxypropylcellulose) (HPC)
[6] = dose: 200.0 mg/kg/injection, schedule: Q04DX003 (ip), vehicle: saline
[7] = dose: 400.0 mg/kg/injection, schedule: Q04DX003 (ip), vehicle: Klucel (hydroxypropylcellulose) (HPC)
[8] = dose: 400.0 mg/kg/injection, schedule: Q04DX003 (ip), vehicle: saline
[9] = dose: 100.0 mg/kg/injection, schedule: Q04DX002 (ip), vehicle: Klucel (hydroxypropylcellulose) (HPC)
[10] = dose: 200.0 mg/kg/injection, schedule: Q04DX002 (ip), vehicle: Klucel (hydroxypropylcellulose) (HPC)
[11] = dose: 100.0 mg/kg/injection, schedule: Q04DX003 (ip), vehicle: saline with Tween-80
[12] = dose: 200.0 mg/kg/injection, schedule: Q04DX003 (ip), vehicle: saline with Tween-80
[13] = dose: 400.0 mg/kg/injection, schedule: Q04DX003 (ip), vehicle: saline with Tween-80
[14] = dose: 75.0 mg/kg/injection, schedule: Q01DX001 (ip), vehicle: saline
[15] = dose: 150.0 mg/kg/injection, schedule: Q01DX001 (ip), vehicle: saline
[16] = dose: 300.0 mg/kg/injection, schedule: Q01DX001 (ip), vehicle: saline
[17] = dose: 100.0 mg/kg/injection, schedule: Q01DX001 (ip), vehicle: carboxymethylcellulose (CMC)
[18] = dose: 400.0 mg/kg/injection, schedule: Q04DX002 (ip), vehicle: Klucel (hydroxypropylcellulose) (HPC)
[19] = dose: 100.0 mg/kg/injection, schedule: Q01DX009 (ip), vehicle: Klucel (hydroxypropylcellulose) (HPC)
[20] = dose: 200.0 mg/kg/injection, schedule: Q01DX009 (ip), vehicle: Klucel (hydroxypropylcellulose) (HPC)
[21] = dose: 400.0 mg/kg/injection, schedule: Q01DX009 (ip), vehicle: Klucel (hydroxypropylcellulose) (HPC)
[22] = dose: 100.0 mg/kg/injection, schedule: Q01DX001 (ip), vehicle: saline
[23] = dose: 200.0 mg/kg/injection, schedule: Q01DX001 (ip), vehicle: saline
[24] = dose: 200.0 mg/kg/injection, schedule: Q01DX001 (ip), vehicle: carboxymethylcellulose (CMC)
[25] = dose: 400.0 mg/kg/injection, schedule: Q01DX001 (ip), vehicle: carboxymethylcellulose (CMC)

Measured: T/C

CCCCCCCCCC(=O)NO
inactive: [1] 102 % of control | [2] 98 % of control | dose: 100.0 mg/kg/injection, schedule: Q01DX001 (ip), vehicle: other 97 % of control | dose: 100.0 mg/kg/injection, schedule: Q01DX009 (ip), vehicle: saline 87 % of control | [3] 93 % of control | [4] 86 % of control and 92 % of control | dose: 200.0 mg/kg/injection, schedule: Q01DX001 (ip), vehicle: other 97 % of control | dose: 200.0 mg/kg/injection, schedule: Q01DX009 (ip), vehicle: saline 98 % of control | [5] 93 % of control | [6] 88 % of control | dose: 400.0 mg/kg/injection, schedule: Q01DX001 (ip), vehicle: other 95 % of control | [7] 91 % of control | [8] 86 % of control

O=C1OC2(c3ccc(O)cc3Oc3cc(O)ccc32)C2C3CCC(O3)C12 (stereo not drawn)
inactive: [9] 100 % of control | [10] 118 % of control

c1ccc(-c2nnc(-c3ccccn3)nc2-c2ccccc2)cc1
inactive: [11] 95 % of control | [12] 104 % of control | [13] 112 % of control

Cc1ccc(S(=O)(=O)CN2CCC(=O)c3ccccc32)cc1
inactive: [14] 104 % of control | [15] 101 % of control | [16] 93 % of control

CN(C)C1c2ccccc2-c2ccc(N)cc21 (stereo not drawn)
inactive: [17] 94 % of control

Cc1cccc(C)c1NC(=S)Nc1ccccc1
inactive: [9] 101 % of control | [10] 105 % of control | [18] 90 % of control

O=C(OC1CCCCCCC1OC(=O)c1ccc([N+](=O)[O-])cc1)c1ccc([N+](=O)[O-])cc1 (stereo not drawn)
inactive: dose: 75.0 mg/kg/injection, schedule: Q01DX001 (ip), vehicle: carboxymethylcellulose (CMC) 93 % of control | dose: 150.0 mg/kg/injection, schedule: Q01DX001 (ip), vehicle: carboxymethylcellulose (CMC) 91 % of control | dose: 300.0 mg/kg/injection, schedule: Q01DX001 (ip), vehicle: carboxymethylcellulose (CMC) 91 % of control

C=C(C)CCC1C(=O)N(c2ccccc2)N(c2ccccc2)C1=O
inactive: dose: 25.0 mg/kg/injection, schedule: Q01DX009 (ip), vehicle: Klucel (hydroxypropylcellulose) (HPC) 103 % of control | dose: 50.0 mg/kg/injection, schedule: Q01DX009 (ip), vehicle: Klucel (hydroxypropylcellulose) (HPC) 95 % of control | [19] 100 % of control

Clc1cccc(Cl)c1Br
inactive: [19] 100 % of control | [11] 108 % of control | [20] 100 % of control | [12] 104 % of control | [21] 105 % of control | [13] 98 % of control

Cc1ccc(-n2c(O)c(C=N)c(=O)n(-c3ccc(C)cc3)c2=O)cc1
inactive: dose: 100.0 mg/kg/injection, schedule: Q01DX009 (ip), vehicle: saline with Tween-80 98 % of control | dose: 200.0 mg/kg/injection, schedule: Q01DX009 (ip), vehicle: saline with Tween-80 98 % of control | dose: 400.0 mg/kg/injection, schedule: Q01DX009 (ip), vehicle: saline with Tween-80 95 % of control

C[N+]1(C)CCCC1
inactive: dose: 6.25 mg/kg/injection, schedule: Q01DX009 (ip), vehicle: saline 103 % of control | dose: 12.5 mg/kg/injection, schedule: Q01DX009 (ip), vehicle: saline 102 % of control | dose: 12.5 mg/kg/injection, schedule: Q04DX003 (ip), vehicle: saline 86 % of control | dose: 25.0 mg/kg/injection, schedule: Q01DX009 (ip), vehicle: saline 109 % of control | [1] 91 % of control | [2] 95 % of control

Cc1ccc(NC(=O)COc2ccc(Cl)cc2)c(C)c1
inactive: dose: 100.0 mg/kg/injection, schedule: Q01DX001 (ip), vehicle: Klucel (hydroxypropylcellulose) (HPC) 99 % of control | [19] 100 % of control | [3] 96 % of control | dose: 200.0 mg/kg/injection, schedule: Q01DX001 (ip), vehicle: Klucel (hydroxypropylcellulose) (HPC) 99 % of control | [20] 102 % of control | [5] 96 % of control | dose: 400.0 mg/kg/injection, schedule: Q01DX001 (ip), vehicle: Klucel (hydroxypropylcellulose) (HPC) 99 % of control | [7] 98 % of control

Cc1nc(N)sc1N=Nc1cccc(Cl)c1Cl
inactive: [14] 88 % of control | [15] 92 % of control | [16] 93 % of control

O=P1(Nc2ccccc2)OCCCN1Cc1ccc(Cl)c(Cl)c1 (stereo not drawn)
inactive: dose: 50.0 mg/kg/injection, schedule: Q01DX001 (ip), vehicle: saline 96 % of control | [22] 102 % of control | [23] 90 % of control | dose: 400.0 mg/kg/injection, schedule: Q01DX001 (ip), vehicle: saline 102 % of control

C/C(=N/O)c1ccccc1NO
inactive: dose: 25.0 mg/kg/injection, schedule: Q01DX001 (ip), vehicle: carboxymethylcellulose (CMC) 89 % of control | dose: 50.0 mg/kg/injection, schedule: Q01DX001 (ip), vehicle: carboxymethylcellulose (CMC) 94 % of control | [17] 96 % of control | [24] 91 % of control | [25] 86 % of control

CCOC(=O)C(=CNc1cnc(SC)[nH]c1=O)C(=O)OCC
inactive: [4] 91 % of control | [6] 93 % of control | [8] 89 % of control

COc1ccc(C(=O)OCc2ccccc2CN2CCOCC2)cc1
inactive: [9] 95 % of control | [10] 95 % of control | [18] 95 % of control

CCCOc1ccc(C2=C(c3ccccc3)C(=O)C(c3ccccc3)=C2c2ccccc2)cc1
inactive: [17] 94 % of control | [24] 100 % of control | [25] 94 % of control

CCCCCCCCOc1ccc(C=Nc2ccc(CC)cc2)cc1
inactive: [19] 97 % of control | [20] 86 % of control | [21] 91 % of control

COc1ccccc1/C=N/NC(=O)CCCCCCCCC(=O)N/N=C/c1ccccc1OC
inactive: [19] 95 % of control | [20] 88 % of control | [21] 88 % of control

CCNc1nnnn1-c1ccccc1
inactive: [22] 97 % of control | [23] 101 % of control
